Read-outs that look alike come from different tables or passages of the source.
Tests used:
DPP4 [1] = target: T1, DPP4 (Homo sapiens, UniProt P27487); assay: Inhibition kinetic analysis of DPP4 (Lineweaver–Burk plot); type: biochemical; details: for Κm of the enzyme in the presence of the compound: without compound 49.7 ± 3.8; for Inhibition Mode: from Lineweaver–Burk plot, substrate 17–80 μM
Description: To further investigate the mode of inhibition, Lineweaver–Burk curves were prepared for some of the compounds.
The concentration range of the substrate (H-Gly-Pro-AMC) was 17–80 μM, and the final concentration of DPP-4 was 0.17 µg/mL. The maximum enzymatic reaction rate (Vmax) and Michaelis constant (Km) were calculated according to the Lineweaver–Burk plot.

DPP4 [2] = target: T1, DPP4; assay: In vitro DPP4 inhibition assay, fluorometric, H-Gly-Pro-amidomethyl coumarin substrate; details: for logIC50: Figure 4, competitive inhibitors
Description: The compounds were screened for their inhibitory activity against DPP4 by a fluorometric assay, measuring the hydrolysis rate of the substrate Gly-Pro-amidomethyl coumarin in the absence and presence of the inhibitor. […] DPP-4 activity was assessed by measuring the hydrolysis rate of the substrate H-Gly-Pro-amidomethyl coumarin. The resulting fluorescent product, 7-Amino-4-Methyl Coumarin (AMC), was monitored with a Tecan Pro2000 microplate fluorescence reader (Tecan Ltd, Zurich, Switzerland) at an excitation wavelength of 360 nm and an emission wavelength of 460 nm, with measurements taken every 60 s for 30 min. The inhibitors, dissolved in DMSO, were added to the reaction buffer (20 mM Tris-HCl, pH 8, 100 mM NaCl, and 1 mM EDTA) at 10 µL per reaction, along with 0.17 µg/mL of enzyme, and incubated for 10 min. After incubation, 50 µL of the appropriate substrate concentration was added, bringing the total reaction volume to 100 µL. The inhibition (%) was calculated as ((Fc − Fi)/Fc) × 100, where Fc is the fluorescence value of the control (no inhibitor-total activity) and Fi is the fluorescence value in the presence of the inhibitor. […] The volume of 10 μL DMSO was added to the total activity control instead of the inhibitor. A blank containing all other components except for the enzyme was abstracted in all cases. Each determination was performed in triplicate.

[3] = cited from earlier work
[4] = compound concentration 15.000 μΜ
[5] = read-out: % Inhibition, 50 μΜ Substrate
[6] = read-out: % Inhibition, 100 μΜ Substrate
[7] = compound concentration 0.080 μΜ
[8] = compound concentration 0.100 μΜ

T1 sequence (P27487 whole entry): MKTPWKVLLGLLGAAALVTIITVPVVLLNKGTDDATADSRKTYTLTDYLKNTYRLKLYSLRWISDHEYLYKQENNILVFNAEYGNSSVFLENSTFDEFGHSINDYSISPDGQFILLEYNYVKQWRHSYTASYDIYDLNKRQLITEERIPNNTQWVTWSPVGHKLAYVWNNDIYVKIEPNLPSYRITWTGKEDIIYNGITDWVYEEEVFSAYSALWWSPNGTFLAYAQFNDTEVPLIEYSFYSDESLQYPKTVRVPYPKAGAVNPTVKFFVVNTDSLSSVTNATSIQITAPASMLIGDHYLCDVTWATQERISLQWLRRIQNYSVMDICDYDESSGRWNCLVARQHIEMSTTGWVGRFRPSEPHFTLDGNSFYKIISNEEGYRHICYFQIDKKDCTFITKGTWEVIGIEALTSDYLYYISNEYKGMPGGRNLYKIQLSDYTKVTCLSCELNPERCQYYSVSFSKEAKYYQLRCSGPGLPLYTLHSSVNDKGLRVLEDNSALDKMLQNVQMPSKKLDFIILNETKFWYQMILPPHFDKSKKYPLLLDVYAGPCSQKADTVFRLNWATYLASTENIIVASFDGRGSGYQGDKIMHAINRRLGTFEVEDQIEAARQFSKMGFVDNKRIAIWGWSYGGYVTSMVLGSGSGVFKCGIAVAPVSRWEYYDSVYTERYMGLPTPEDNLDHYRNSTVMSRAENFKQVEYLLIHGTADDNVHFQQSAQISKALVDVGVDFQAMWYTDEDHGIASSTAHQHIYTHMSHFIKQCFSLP

Q: Which “Κm of the enzyme in the presence of the compound” value (“Κm of the enzyme” below) (DPP4 [1]; [4]) does the source give for `COc1ccc(C2SCC(=O)N2c2nc3ccc(Cl)cc3s2)cc1` (stereo not shown) [c4] here?
A: 19.4 ± 9.3

Q: What about the “Inhibition Mode” value (DPP4 [1]) of the same compound?
A: uncompetitive

Q: And the IC50 (DPP4 [2]; IC50, DPP4, triplicate)?
A: 11500 ± 1500 nM

Q: And the inhibition at 10 µM (DPP4 [2]; [5])?
A: 48.5%

Q: What about the inhibition at 10 µM (DPP4 [2]; [6]) of the same compound?
A: 68.5%

Q: What does the source list for `O=C1CSC(c2c(F)cccc2Cl)N1c1nc2ccc(C34CC5CC(CC(C5)C3)C4)cc2s1` (stereo not shown) [m2, 3-(6-Ad-benzo[d]thiazol-2-yl)-2-(2-F,6-Cl-phenyl) thiazolidin-4-one]?
A: Κm of the enzyme in the presence of the compound (DPP4 [1]; compound concentration 0.060 μΜ): 30.6 ± 2.7; Inhibition Mode (DPP4 [1]): uncompetitive; IC50 (DPP4 [2]; IC50, DPP4, triplicate): 71.5 ± 8.3 nM; inhibition at 0.08 µM (DPP4 [2]; [5]): 52%; inhibition at 0.08 µM (DPP4 [2]; [6]): 69.7%

Q: What does the source list for `O=C1CSC(c2ccc(F)cc2)N1c1nc2ccc(Cl)cc2s1` (stereo not shown) [c1]?
A: IC50 (DPP4 [2]; IC50, DPP4, triplicate): > 20000 nM; inhibition at 10 µM (DPP4 [2]; [5]): 33.5%; inhibition at 10 µM (DPP4 [2]; [6]): 11.4%

Q: For `O=C1CSC(c2ccc(Cl)cc2)N1c1nc2ccc(OC(F)(F)F)cc2s1` (stereo not shown) [h8], which “Κm of the enzyme” value (DPP4 [1]; [7]) is on record?
A: 167.9 ± 15.8

Q: What about the “Inhibition Mode” value (DPP4 [1]) of the same compound?
A: mixed

Q: What about the IC50 (DPP4 [2]; IC50, DPP4, triplicate) of the same compound?
A: 90.6 ± 8.8 nM

Q: And the inhibition at 0.08 µM (DPP4 [2]; [5])?
A: 45%

Q: And the inhibition at 0.08 µM (DPP4 [2]; [6])?
A: 26%

Q: What does the source list for `O=C1CSC(c2ccc(Cl)cc2Cl)N1c1nc2ccc(OC(F)(F)F)cc2s1` (stereo not shown) [h5]?
A: IC50 (DPP4 [2]; IC50, DPP4, triplicate): 23.7 ± 2 nM; inhibition at 0.08 µM (DPP4 [2]; [5]): 45%; inhibition at 0.08 µM (DPP4 [2]; [6]): 14%

Q: With `O=C1CSC(c2c(Cl)cccc2Cl)N1c1nc2ccc(OC(F)(F)F)cc2s1` (stereo not shown) [h1] as the compound, how does the logIC50 (DPP4 [2]) read?
A: 1.491

Q: What about the IC50 (DPP4 [2]; IC50, DPP4, triplicate) of the same compound?
A: 31 ± 3.8 nM

Q: And the inhibition at 0.08 µM (DPP4 [2]; [5])?
A: 79.8%

Q: What about the inhibition at 0.08 µM (DPP4 [2]; [6]) of the same compound?
A: 12%

Q: With `O=C1CSC(c2ccc(Cl)cc2)N1c1nc2ccc(Cl)cc2s1` (stereo not shown) [c3] as the compound, how does the logIC50 (DPP4 [2]) read?
A: 4.097

Q: What about the IC50 (DPP4 [2]; IC50, DPP4, triplicate) of the same compound?
A: 12500 ± 200 nM

Q: And the inhibition at 10 µM (DPP4 [2]; [5])?
A: 41.6%

Q: What about the inhibition at 10 µM (DPP4 [2]; [6]) of the same compound?
A: 28%

Q: Which “excreted unmodified in the feces” value [3] does the source give for `CC#CCn1c(N2CCC[C@@H](N)C2)nc2c1c(=O)n(Cc1nc(C)c3ccccc3n1)c(=O)n2C` [linagliptin] here?
A: 87%

Q: Which “Κm of the enzyme” value (DPP4 [1]; [8]) does the source give for `Cc1cc(C23CC4CC(CC(C4)C2)C3)cc2sc(N3C(=O)CSC3c3c(F)cccc3F)nc12` (stereo not shown) [n2] here?
A: 117.2 ± 1.5

Q: And the “Inhibition Mode” value (DPP4 [1])?
A: competitive

Q: And the logIC50 (DPP4 [2])?
A: 1.681

Q: What about the IC50 (DPP4 [2]; IC50 (as printed in Figure 4), printed in the picture of Figure 4 without unit) of the same compound?
A: 48 nM

Q: And the IC50 (DPP4 [2]; IC50, DPP4, triplicate)?
A: 48.3 ± 5.2 nM

Q: What about the inhibition at 0.08 µM (DPP4 [2]; [5]) of the same compound?
A: 66.3%

Q: What about the inhibition at 0.08 µM (DPP4 [2]; [6]) of the same compound?
A: 0%

Q: For `O=C1CSC(c2ccc(F)cc2)N1c1nc2ccc(OC(F)(F)F)cc2s1` (stereo not shown) [h6], which IC50 (DPP4 [2]; IC50, DPP4, triplicate) is on record?
A: > 100 nM

Q: And the inhibition at 0.08 µM (DPP4 [2]; [5])?
A: 46.8%

Q: And the inhibition at 0.08 µM (DPP4 [2]; [6])?
A: 0%

Q: With `O=C1CSC(c2ccc([N+](=O)[O-])cc2)N1c1nc2ccc(OC(F)(F)F)cc2s1` (stereo not shown) [h7] as the compound, how does the IC50 (DPP4 [2]; IC50, DPP4, triplicate) read?
A: 25.5 ± 3 nM

Q: What about the inhibition at 0.08 µM (DPP4 [2]; [5]) of the same compound?
A: 67%

Q: What about the inhibition at 0.08 µM (DPP4 [2]; [6]) of the same compound?
A: 55%

Q: For `N[C@@H](CC(=O)N1CCn2c(nnc2C(F)(F)F)C1)Cc1cc(F)c(F)cc1F` [sitagliptin], which “ends unmodified in the urine” value [3] is on record?
A: 79%

Q: For `O=C1CSC(c2ccc([N+](=O)[O-])cc2)N1c1nc2ccc(Cl)cc2s1` (stereo not shown) [c2], which “Κm of the enzyme” value (DPP4 [1]; [4]) is on record?
A: 87.6 ± 4.8

Q: And the “Inhibition Mode” value (DPP4 [1])?
A: competitive

Q: What about the IC50 (DPP4 [2]; IC50, DPP4, triplicate) of the same compound?
A: 8600 ± 200 nM

Q: What about the inhibition at 10 µM (DPP4 [2]; [5]) of the same compound?
A: 66%

Q: What about the inhibition at 10 µM (DPP4 [2]; [6]) of the same compound?
A: 14.1%

Q: For `O=C1CSC(c2cccc(Cl)c2Cl)N1c1nc2ccc(OC(F)(F)F)cc2s1` (stereo not shown) [h4], which “Κm of the enzyme” value (DPP4 [1]; [7]) is on record?
A: 98 ± 26.9

Q: And the “Inhibition Mode” value (DPP4 [1])?
A: competitive

Q: What about the logIC50 (DPP4 [2]) of the same compound?
A: 1.431

Q: And the IC50 (DPP4 [2]; IC50, DPP4, triplicate)?
A: 27 ± 0.5 nM

Q: What about the inhibition at 0.08 µM (DPP4 [2]; [5]) of the same compound?
A: 84.4%

Q: What about the inhibition at 0.08 µM (DPP4 [2]; [6]) of the same compound?
A: 12.1%

Q: With `COc1ccc(C2SCC(=O)N2c2nc3ccc(OC(F)(F)F)cc3s2)cc1` (stereo not shown) [h9] as the compound, how does the “Inhibition Mode” value (DPP4 [1]) read?
A: mixed

Q: What about the IC50 (DPP4 [2]; IC50, DPP4, triplicate) of the same compound?
A: 72.3 ± 5.2 nM

Q: What about the inhibition at 0.08 µM (DPP4 [2]; [5]) of the same compound?
A: 52.3%

Q: What about the inhibition at 0.08 µM (DPP4 [2]; [6]) of the same compound?
A: 37.6%

Q: Which results are given for `O=C1CSC(c2ccc(O)cc2)N1c1nc2ccc(OC(F)(F)F)cc2s1` (stereo not shown) [h10]?
A: IC50 (DPP4 [2]; IC50, DPP4, triplicate): > 100 nM; inhibition at 0.08 µM (DPP4 [2]; [5]): 38%; inhibition at 0.08 µM (DPP4 [2]; [6]): 0%

Q: Which results are given for `Cc1cc(C23CC4CC(CC(C4)C2)C3)cc2sc(N3C(=O)CSC3c3c(Cl)cccc3Cl)nc12` (stereo not shown) [n1, 3-(4-CH3,6-Ad-benzo[d]thiazol-2-yl)-2-(2,6-di-Cl-phenyl) thiazolidin-4-one]?
A: Κm of the enzyme in the presence of the compound (DPP4 [1]; [8]): 49.8 ± 0.6; Inhibition Mode (DPP4 [1]): non-competitive; IC50 (DPP4 [2]; IC50, DPP4, triplicate): 137 ± 4.6 nM; inhibition at 0.08 µM (DPP4 [2]; [5]): 36.8%; inhibition at 0.08 µM (DPP4 [2]; [6]): 37.2%

Q: For `O=C1CSC(c2c(F)cccc2Cl)N1c1nc2ccc(OC(F)(F)F)cc2s1` (stereo not shown) [h3, 3-(6-OCF3-benzo[d]thiazol-2-yl)-2-(2-F,6-Cl-phenyl) thiazolidin-4-one], which “Κm of the enzyme” value (DPP4 [1]; compound concentration 0.010 μΜ) is on record?
A: 103.1 ± 9.3

Q: And the “Inhibition Mode” value (DPP4 [1])?
A: competitive

Q: And the logIC50 (DPP4 [2])?
A: 1.079

Q: What about the IC50 (DPP4 [2]; IC50, DPP4, triplicate) of the same compound?
A: 12 ± 0.5 nM

Q: And the inhibition at 0.08 µM (DPP4 [2]; [5])?
A: 62%

Q: And the inhibition at 0.08 µM (DPP4 [2]; [6])?
A: 20%

— paper PMC11768251, “Τhiazolidine-4-One Derivatives with Variable Modes of Inhibitory Action Against DPP4, a Drug Target with Multiple Activities and Established Role in Diabetes Mellitus Type II” (Pharmaceuticals, 2025)
